Results taken from US6613961B1, “Plants capable of metabolizing drugs and use thereof” (priority 1998, dated 2003).

What was measured:
[1] = test system: leaves of potato individuals expressing three types of P450; assay: 7-ethoxycoumarin O-deethylation activity in leaves of kanamycin-resistant individuals; type: in vivo, Solanum tuberosum cv. MayQueen; settings: leaves cultured with 7-ethoxycoumarin for 3 days
Experimental: Leaves of the kanamycin-resistant individuals (0.1 g) were cultured in 5 ml of a liquid medium containing 2% sucrose with 100 μl of 20 mM 7-ethoxycoumarin for 3 days. Then, the leaves were crushed in 500 μl of 0.1 M potassium phosphate buffer (pH 7.4), and chloroform was added to the supernatant and mixed. To the chloroform layer, 0.01 N NaOH/0.1 M NaCl was added, and measurement was performed at excitation wavelength of 366 nm and at emission of 452 nm with the Hitachi fluorometer. […] Each of CYP1A1-expressing individual S1965, and CYP2B6-expressing individual S1972 was selected in the same manner.

Human CYP1A1 = target: T1, Human CYP1A1 (Homo sapiens, UniProt P04798); assay: Metabolism of herbicides in microsomes of recombinant yeast expressing human P450; type: in vitro ADME
T1 construct: purchased Sumitomo Chemical; host or cells: recombinant yeast, microsomal fraction
T1 sequence (P04798 1-512): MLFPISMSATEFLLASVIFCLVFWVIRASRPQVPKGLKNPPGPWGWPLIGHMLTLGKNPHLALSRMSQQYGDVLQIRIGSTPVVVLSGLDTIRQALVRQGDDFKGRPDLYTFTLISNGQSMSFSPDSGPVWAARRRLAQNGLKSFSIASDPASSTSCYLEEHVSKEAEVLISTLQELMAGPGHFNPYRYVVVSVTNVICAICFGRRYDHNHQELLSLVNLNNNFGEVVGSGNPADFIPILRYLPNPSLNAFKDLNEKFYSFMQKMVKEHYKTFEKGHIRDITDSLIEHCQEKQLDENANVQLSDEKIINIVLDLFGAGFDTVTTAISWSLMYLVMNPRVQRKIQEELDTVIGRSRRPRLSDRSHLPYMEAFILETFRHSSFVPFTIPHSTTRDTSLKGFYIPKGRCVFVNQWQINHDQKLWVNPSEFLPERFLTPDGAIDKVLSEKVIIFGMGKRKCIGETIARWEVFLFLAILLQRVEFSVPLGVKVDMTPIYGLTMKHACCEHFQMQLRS

S1974 (human CYP2C19) = assay: Herbicide tolerance assay for transformants; type: in vivo, Solanum tuberosum cv. MayQueen; settings: acetochlor 20 μmol, atrazine 1.2 μmol, metolachlor 30 μmol dispersed
From the text: Then, herbicides were dispersed.

non-transformed MayQueen = assay: Assay for herbicide resistance, non-transformed potato; type: in vivo; design: key: 1: alomost dead; 2: severely inhibited growth; 3: slightly inferior growth; 4: the same growth as that when herbicide was not dispersed; settings: 14 days after dispersal
From the text: 4, the same growth as that when herbicide was not dispersed.

Human CYP2C9 = Human CYP2C9 (Homo sapiens, UniProt P11712); assay: Herbicide metabolism by human P450 molecular species (microsomal fraction); type: in vitro ADME
Sequence of Human CYP2C9 (P11712 whole entry): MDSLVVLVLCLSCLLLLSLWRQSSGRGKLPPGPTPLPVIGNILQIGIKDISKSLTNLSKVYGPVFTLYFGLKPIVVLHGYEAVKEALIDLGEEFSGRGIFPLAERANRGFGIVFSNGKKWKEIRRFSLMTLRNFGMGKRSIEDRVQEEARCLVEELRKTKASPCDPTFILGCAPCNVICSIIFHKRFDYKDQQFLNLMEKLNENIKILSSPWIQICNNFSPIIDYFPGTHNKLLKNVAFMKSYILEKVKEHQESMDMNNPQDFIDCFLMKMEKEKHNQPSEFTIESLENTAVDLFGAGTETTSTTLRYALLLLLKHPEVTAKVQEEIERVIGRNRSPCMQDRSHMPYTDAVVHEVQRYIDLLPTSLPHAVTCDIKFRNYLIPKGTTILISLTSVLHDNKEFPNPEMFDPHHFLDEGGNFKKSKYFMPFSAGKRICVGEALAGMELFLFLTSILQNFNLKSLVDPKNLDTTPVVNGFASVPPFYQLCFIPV

[2] = test system: seeds of Nipponbare into which the gene was not introduced; assay: Germination assay for herbicide resistance, non-introduced rice seeds; type: in vivo, rice (Nipponbare); settings: […] metolachlor, […] alachlor, 15 μM triflurarin; after about 4 to 7 days
Human CYP2B6 = target: T2, Human CYP2B6 (Homo sapiens, UniProt P20813); assay: Metabolism of herbicides in microsomes of recombinant yeast expressing human P450
T2 sequence (P20813 1-491): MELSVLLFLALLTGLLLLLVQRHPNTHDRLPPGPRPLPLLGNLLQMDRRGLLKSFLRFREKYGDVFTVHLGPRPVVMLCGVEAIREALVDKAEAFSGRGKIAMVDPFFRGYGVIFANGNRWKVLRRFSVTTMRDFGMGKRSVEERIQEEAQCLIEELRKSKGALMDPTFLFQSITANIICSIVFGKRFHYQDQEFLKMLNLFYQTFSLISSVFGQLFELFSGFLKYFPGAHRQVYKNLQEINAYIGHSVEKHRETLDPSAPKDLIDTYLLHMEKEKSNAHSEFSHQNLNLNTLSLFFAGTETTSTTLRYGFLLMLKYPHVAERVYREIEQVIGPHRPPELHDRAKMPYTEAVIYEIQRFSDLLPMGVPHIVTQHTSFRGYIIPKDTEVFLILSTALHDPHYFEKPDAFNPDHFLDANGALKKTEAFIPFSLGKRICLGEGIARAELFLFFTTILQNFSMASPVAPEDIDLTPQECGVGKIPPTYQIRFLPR
Experimental: The reaction was carried out in a range of temperature suitable for an organism from which a p450 molecular species is derived (for example, 37° C. for human P450), by mixing with air while vigorously shaking, within a period during which an enzyme is not inactivated (for example, for 10 to 60 min).
From the height of the peak, a metabolized amount can be obtained.
To 0.1 M potassium phosphate buffer (pH 7.4), the microsomal fraction prepared from each of yeast strains respectively expressing one of 11 human P450 molecular species (obtained from Sumitomo Chemical) was added so that the amount of the p450 would be 25 pmol. Furthermore, 0.5 mM NADPH, 5 mM glucose 6 phosphate, 1 U/ml glucose 6 phosphate dehydrogenase, and 0.1 mM each of the following herbicides (those available in the market were used) were added at the final concentrations thereto to make the total volume of 100 μl. The reaction mixture was shaken at 37° C. for 60 min, and an organic solvent was added thereto for the extraction. The extract was applied to the high performance liquid chromatography, and the metabolite was measured.

[3] = test system: microsomal fraction of Control plants; assay: 7-ethoxyresorufin O-deethylation activity using a microsomal fraction; type: biochemical, Solanum tuberosum cv. MayQueen
Experimental: (§1) A reaction was initiated by adding 7-ethoxyresorufin to the concentration of 10 μM to a reaction solution containing 0.1 M potassium phosphate buffer (pH 7.4), 3 mM NADPH, and 1 mg/ml microsomal fractions at the final concentrations. The mixture was incubated at 37° C. for 30 min, ice-cooled acetone was added thereto, and allowed to stand on ice for 10 min. The supernatant was measured using the fluorometer (excitation wavelength of 550 nm, and emission of 586 nm).
(§2) Inhibition of activity by addition of carbon monoxide and absence of NADPH indicated P450-dependency. On the other hand, an increased activity was not observed in S1972 or S1974. […] In the table, “EROD activity” of (a) indicates 7-ethoxyresorufin O-deethylase activity (pmol/min/mg of protein) and means±standard deviations in three independent experiments. In (b), the values indicate the activities in the presence of carbon monoxide. In (c), the values indicate the activities in the absence of NADPH.

[4] = target: T3, microsomal fraction of S1974 (human CYP2C19) (Homo sapiens, UniProt P33261); assay: as above; type: biochemical
T3 construct: expressed in transfected cells; host or cells: transgenic potato (Solanum tuberosum cv. MayQueen) line S1974, plasmid pUHC19, microsomal fraction
T3 sequence (P33261 whole entry): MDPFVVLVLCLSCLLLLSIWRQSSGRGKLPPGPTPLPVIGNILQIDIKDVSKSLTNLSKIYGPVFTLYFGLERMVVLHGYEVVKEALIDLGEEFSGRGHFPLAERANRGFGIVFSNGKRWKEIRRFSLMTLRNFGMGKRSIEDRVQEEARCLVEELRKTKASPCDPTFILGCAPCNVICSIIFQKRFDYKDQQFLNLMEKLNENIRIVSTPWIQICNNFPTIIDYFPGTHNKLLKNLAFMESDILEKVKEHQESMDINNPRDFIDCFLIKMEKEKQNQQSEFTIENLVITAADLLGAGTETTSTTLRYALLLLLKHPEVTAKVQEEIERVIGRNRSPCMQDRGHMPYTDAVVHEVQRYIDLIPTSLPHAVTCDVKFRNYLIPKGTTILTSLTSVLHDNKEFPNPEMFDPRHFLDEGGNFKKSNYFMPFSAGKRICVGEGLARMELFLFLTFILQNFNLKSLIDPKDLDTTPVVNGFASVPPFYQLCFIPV
Experimental: as §1, §2

[5] = target: T4, microsomal fraction of S1965 (human CYP1A1) (Homo sapiens, UniProt P04798); assay: as above; type: biochemical
T4 construct: expressed in transfected cells; host or cells: transgenic potato (Solanum tuberosum cv. MayQueen) line S1965, plasmid pUHA1, microsomal fraction
T4 sequence (P04798 1-512): T1 sequence (P04798 1-512)
Experimental: as §1, §2

[6] = target: T5, microsomal fraction of T1977 (human CYP1A1, CYP2B6, CYP2C19) (Homo sapiens, UniProt P04798); assay: as above; type: biochemical
T5 construct: expressed in transfected cells; host or cells: transgenic potato (Solanum tuberosum cv. MayQueen) line T1977, plasmid pIKBAC, microsomal fraction
T5 sequence (P04798 1-512): T1 sequence (P04798 1-512)
Experimental: as §1, §2

[7] = target: T6, microsomal fraction of S1972 (human CYP2B6) (Homo sapiens, UniProt P20813); assay: as above; type: biochemical
T6 construct: expressed in transfected cells; host or cells: transgenic potato (Solanum tuberosum cv. MayQueen) line S1972, plasmid pUHB6, microsomal fraction
Experimental: as §1, §2

[8] = 10 μM 7-ethoxyresorufin, means±standard deviations in three independent experiments

`CCOc1ccc2ccc(=O)oc2c1` [7-ethoxycoumarin] was tested, and the “7-ethoxycoumarin O-deethylation activity” value ([1]; individual T1977) was “higher activity than the control” and the “7-ethoxycoumarin O-deethylation activity” value ([1]; individual T1979) was “higher activity than the control”.

`CNC(=O)N(C)c1nc2ccccc2s1` [methabenzthiazuron] was tested, and the metabolic reaction confirmed (Human CYP1A1) was “N-demethylation, ring hydroxylation”.

For `CCNc1nc(Cl)nc(NC(C)C)n1` [atrazine], the “resistance of the transformant to the herbicide” value (S1974 (human CYP2C19)) was “strong resistance” and the metabolic reaction confirmed (Human CYP1A1) was “N-deethylation, N-deisopropylation”.

`CCOCN(C(=O)CCl)c1c(C)cccc1CC` [acetochlor] gave a Resistance to herbicide (non-transformed MayQueen; Acetochlor 5 μmol/pot) of 2, a Resistance to herbicide (non-transformed MayQueen; Acetochlor 10 μmol/pot) of 2 and a Resistance to herbicide (non-transformed MayQueen; Acetochlor 15 μmol/pot) of 1. For the same compound, the “resistance of the transformant to the herbicide” value (S1974 (human CYP2C19)) was “strong resistance”.

In the case of `COc1cc(OC)nc(NC(=O)NS(=O)(=O)c2c(Cl)nc3ccccn23)n1` [imazosulfuron], the metabolic reaction confirmed (Human CYP2C9) is reported as “ring hydroxylation”.

`CNc1cnn(-c2cccc(C(F)(F)F)c2)c(=O)c1Cl` [norflurazon] was tested, and the metabolic reaction confirmed (Human CYP1A1) was “N-demethylation”.

For `CCCN(CCC)c1c([N+](=O)[O-])cc(C(F)(F)F)cc1[N+](=O)[O-]` [triflurarin], the Germination of seeds [2] was “inhibited” and the metabolic reaction confirmed (Human CYP2B6) was “O-demethylation”.

For `CO/N=C(/C)c1cccc(Oc2nc(OC)cc(OC)n2)c1C(=O)OC` [pyriminobac-methyl], the metabolic reaction confirmed (Human CYP1A1) was “hydroxylation”.

With `CCOc1ccc2nc3ccc(=O)cc-3oc2c1` [7-ethoxyresorufin] the “-NADPH (Inhibition rate)” value [3] was 82%, the “CO (Inhibition rate)” value [3] was 45% and the EROD activity [3, 8] was 0.11 ± 0.01 pmol/min/mg of protein. For the same compound, the “EROD activity in the absence of NADPH” value ([3]; -NADPH) was 0.02 pmol/min/mg of protein, the “EROD activity in the presence of carbon monoxide” value (from here on “EROD activity in the presence”) ([3]; CO) was 0.06 pmol/min/mg of protein and the “increased 7-ethoxyresorufin O-deethylation activity” value [4] was “not observed”. For the same compound, the EROD activity [4, 8] was 0.14 ± 0.03 pmol/min/mg of protein, the “7-ethoxyresorufin O-deethylation activity, times higher than the controls” value [5] was about 53 times and the “-NADPH (Inhibition rate)” value [5] was 99%. The “CO (Inhibition rate)” value [5] was 77%, the EROD activity [5, 8] was 5.78 ± 0.51 pmol/min/mg of protein and the “EROD activity in the absence of NADPH” value ([5]; -NADPH) was 0.06 pmol/min/mg of protein. The “EROD activity in the presence” value ([5]; CO) was 1.33 pmol/min/mg of protein, the “7-ethoxyresorufin O-deethylation activity, times higher than the controls” value [6] was “about 27 times” and the “-NADPH (Inhibition rate)” value [6] was 99%. For the same compound, the “CO (Inhibition rate)” value [6] was 76%, the EROD activity [6, 8] was 2.92 ± 0.72 pmol/min/mg of protein and the “EROD activity in the absence of NADPH” value ([6]; -NADPH) was 0.02 pmol/min/mg of protein. For the same compound, the “EROD activity in the presence” value ([6]; CO) was 0.69 pmol/min/mg of protein, the “increased 7-ethoxyresorufin O-deethylation activity” value [7] was “not observed” and the EROD activity [7, 8] was 0.12 ± 0.03 pmol/min/mg of protein.

With `CCS(=O)(=O)Oc1ccc2c(c1)C(C)(C)CO2` [benfuresate] the metabolic reaction confirmed (Human CYP2B6) was “O-deethylation, hydroxylation”.

In the case of `Cc1ccc(NC(=O)N(C)C)cc1Cl` [chlorotoluron], the metabolic reaction confirmed (Human CYP1A1) is reported as “N-demethylation, ring hydroxylation”.

With `CCc1cccc(CC)c1N(COC)C(=O)CCl` [alachlor] the Germination of seeds [2] was “inhibited” and the metabolic reaction confirmed (Human CYP2B6) was “O-deethylation, O-demethylation”.

In the case of `CCOC1Oc2ccc(OS(C)(=O)=O)cc2C1(C)C` (stereo not shown) [ethofumesate], the metabolic reaction confirmed (Human CYP2B6) is reported as “O-deethylation, hydroxylation”.
